Data reported in ChEMBL document CHEMBL3046635, “Synthesis and Herbicidal Activity of New Pyrazole-4-carboxamide Derivatives” (J Pestic Sci, 2004).
Activity calls are given as the source filed them.

Assays:
Eleocharis acicularis [1] = experiment: Pre-emergence herbicidal activity against Eleocharis acicularis at 100 g a.i/ha measured after 14 days; assay type: functional, organism-based
Oryza sativa [2] = experiment: Phytotoxicity against Oryza sativa cv. Koshihikari (rice) at 100 g a.i/ha measured after 14 days; assay type: organism-based; details: in vivo, 336 h
[3] = test system: Schoenoplectiella juncoides; experiment: Pre-emergence herbicidal activity against Schoenoplectiella juncoides at 100 g a.i/ha measured after 14 days; assay type: functional, organism-based
Pontederia vaginalis [4] = experiment: Pre-emergence herbicidal activity against Monochoria vaginalis at 100 g a.i/ha measured after 14 days; assay type: functional, organism-based
Ammannia multiflora [5] = experiment: Pre-emergence herbicidal activity against Ammannia multiflora at 100 g a.i/ha measured after 14 days; assay type: functional, organism-based
Rotala indica [6] = experiment: Pre-emergence herbicidal activity against Rotala indica at 100 g a.i/ha measured after 14 days; assay type: functional, organism-based
Elatine triandra [7] = experiment: Pre-emergence herbicidal activity against Elatine triandra at 100 g a.i/ha measured after 14 days; assay type: functional, organism-based
Lindernia procumbens [8] = experiment: Pre-emergence herbicidal activity against Lindernia procumbens at 100 g a.i/ha measured after 14 days; assay type: functional, organism-based
Cyperus difformis [9] = experiment: Pre-emergence herbicidal activity against Cyperus difformis at 100 g a.i/ha measured after 14 days; assay type: functional, organism-based
Echinochloa oryzicola [10] = experiment: Pre-emergence herbicidal activity against Echinochloa oryzicola at 100 g a.i/ha measured after 14 days; assay type: functional, organism-based
Oryza sativa [11] = experiment: Phytotoxicity against Oryza sativa cv. Koshihikari (rice) at 500 g a.i/ha measured after 14 days; assay type: organism-based; details: in vivo, 336 h
Eleocharis acicularis [12] = experiment: Pre-emergence herbicidal activity against Eleocharis acicularis at 500 g a.i/ha measured after 14 days; assay type: functional, organism-based
Pontederia vaginalis [13] = experiment: Pre-emergence herbicidal activity against Monochoria vaginalis at 500 g a.i/ha measured after 14 days; assay type: functional, organism-based
[14] = test system: Schoenoplectiella juncoides; experiment: Pre-emergence herbicidal activity against Schoenoplectiella juncoides at 500 g a.i/ha measured after 14 days; assay type: functional, organism-based
Ammannia multiflora [15] = experiment: Pre-emergence herbicidal activity against Ammannia multiflora at 500 g a.i/ha measured after 14 days; assay type: functional, organism-based
Elatine triandra [16] = experiment: Pre-emergence herbicidal activity against Elatine triandra at 500 g a.i/ha measured after 14 days; assay type: functional, organism-based
Rotala indica [17] = experiment: Pre-emergence herbicidal activity against Rotala indica at 500 g a.i/ha measured after 14 days; assay type: functional, organism-based
Lindernia procumbens [18] = experiment: Pre-emergence herbicidal activity against Lindernia procumbens at 500 g a.i/ha measured after 14 days; assay type: functional, organism-based
Echinochloa oryzicola [19] = experiment: Pre-emergence herbicidal activity against Echinochloa oryzicola at 500 g a.i/ha measured after 14 days; assay type: functional, organism-based
Cyperus difformis [20] = experiment: Pre-emergence herbicidal activity against Cyperus difformis at 500 g a.i/ha measured after 14 days; assay type: functional, organism-based
Eleocharis acicularis [21] = experiment: Post-emergence herbicidal activity against Eleocharis acicularis assessed as bleaching of stem/leaf parts; assay type: functional, organism-based; note: test concentration or dose not given here
Eleocharis acicularis [22] = experiment: Pre-emergence herbicidal activity against Eleocharis acicularis assessed as bleaching of stem/leaf parts; assay type: functional, organism-based
Ammannia multiflora [23] = experiment: Pre-emergence herbicidal activity against Ammannia multiflora assessed as bleaching of stem/leaf parts; assay type: functional, organism-based
Rotala indica [24] = experiment: Pre-emergence herbicidal activity against Rotala indica assessed as bleaching of stem/leaf parts; assay type: functional, organism-based
Elatine triandra [25] = experiment: Pre-emergence herbicidal activity against Elatine triandra assessed as bleaching of stem/leaf parts; assay type: functional, organism-based
Lindernia procumbens [26] = experiment: Pre-emergence herbicidal activity against Lindernia procumbens assessed as bleaching of stem/leaf parts; assay type: functional, organism-based
[27] = test system: Schoenoplectiella juncoides; experiment: Pre-emergence herbicidal activity against Schoenoplectiella juncoides assessed as bleaching of stem/leaf parts; assay type: functional, organism-based
Pontederia vaginalis [28] = experiment: Pre-emergence herbicidal activity against Monochoria vaginalis assessed as bleaching of stem/leaf parts; assay type: functional, organism-based
Cyperus difformis [29] = experiment: Pre-emergence herbicidal activity against Cyperus difformis assessed as bleaching of stem/leaf parts; assay type: functional, organism-based
Echinochloa oryzicola [30] = experiment: Pre-emergence herbicidal activity against Echinochloa oryzicola assessed as bleaching of stem/leaf parts; assay type: functional, organism-based
Ammannia multiflora [31] = experiment: Post-emergence herbicidal activity against Ammannia multiflora assessed as bleaching of stem/leaf parts; assay type: functional, organism-based; note: test concentration or dose not given here
Elatine triandra [32] = experiment: Post-emergence herbicidal activity against Elatine triandra assessed as bleaching of stem/leaf parts; assay type: functional, organism-based; note: test concentration or dose not given here
Rotala indica [33] = experiment: Post-emergence herbicidal activity against Rotala indica assessed as bleaching of stem/leaf parts; assay type: functional, organism-based; note: test concentration or dose not given here
[34] = test system: Schoenoplectiella juncoides; experiment: Post-emergence herbicidal activity against Schoenoplectiella juncoides assessed as bleaching of stem/leaf parts; assay type: functional, organism-based; note: test concentration or dose not given here
Lindernia procumbens [35] = experiment: Post-emergence herbicidal activity against Lindernia procumbens assessed as bleaching of stem/leaf parts; assay type: functional, organism-based; note: test concentration or dose not given here
Pontederia vaginalis [36] = experiment: Post-emergence herbicidal activity against Monochoria vaginalis assessed as bleaching of stem/leaf parts; assay type: functional, organism-based; note: test concentration or dose not given here
Cyperus difformis [37] = experiment: Post-emergence herbicidal activity against Cyperus difformis assessed as bleaching of stem/leaf parts; assay type: functional, organism-based; note: test concentration or dose not given here
Echinochloa oryzicola [38] = experiment: Post-emergence herbicidal activity against Echinochloa oryzicola assessed as bleaching of stem/leaf parts; assay type: functional, organism-based; note: test concentration or dose not given here

Compound | Activity (Eleocharis acicularis [1]) | Activity (Oryza sativa [2]) | Activity [3] | Activity (Pontederia vaginalis [4]) | Activity (Ammannia multiflora [5]) | Activity (Rotala indica [6]) | Activity (Elatine triandra [7]) | Activity (Lindernia procumbens [8]) | Activity (Cyperus difformis [9]) | Activity (Echinochloa oryzicola [10]) | Activity (Oryza sativa [11]) | Activity (Eleocharis acicularis [12]) | Activity (Pontederia vaginalis [13]) | Activity [14] | Activity (Ammannia multiflora [15]) | Activity (Elatine triandra [16]) | Activity (Rotala indica [17]) | Activity (Lindernia procumbens [18]) | Activity (Echinochloa oryzicola [19]) | Activity (Cyperus difformis [20]) | also measured
Cn1cc(C(=O)Nc2ccccc2)c(OCc2cccc(C(F)(F)F)c2)n1 | Active | Non-toxic | inactive | Active | Active | Active | Active | Active | inactive | Active | Non-toxic | Active | Active | Active | Active | Active | Active | Active | Active | Active | Activity (Eleocharis acicularis [21]): Active; Activity (Eleocharis acicularis [22]): Active; Activity (Ammannia multiflora [23]): Active; Activity (Rotala indica [24]): Active; Activity (Elatine triandra [25]): Active; Activity (Lindernia procumbens [26]): Active; Activity [27]: Active; Activity (Pontederia vaginalis [28]): Active; Activity (Cyperus difformis [29]): Active; Activity (Echinochloa oryzicola [30]): Active; Activity (Ammannia multiflora [31]): Active; Activity (Elatine triandra [32]): Active; Activity (Rotala indica [33]): Active; Activity [34]: Active; Activity (Lindernia procumbens [35]): Active; Activity (Pontederia vaginalis [36]): Active; Activity (Cyperus difformis [37]): Active; Activity (Echinochloa oryzicola [38]): Active
Cn1cc(C(=O)NOc2ccccc2)c(OCc2cccc(C(F)(F)F)c2)n1 | Active | Non-toxic | inactive | Active | Active | Active | Active | Active | Active | Active | Non-toxic | Active | Active | Active | Active | Active | Active | Active | Active | Active | Activity (Eleocharis acicularis [21]): Active; Activity (Eleocharis acicularis [22]): Active; Activity (Ammannia multiflora [23]): Active; Activity (Rotala indica [24]): Active; Activity (Elatine triandra [25]): Active; Activity (Lindernia procumbens [26]): Active; Activity [27]: Active; Activity (Pontederia vaginalis [28]): Active; Activity (Cyperus difformis [29]): Active; Activity (Echinochloa oryzicola [30]): Active; Activity (Ammannia multiflora [31]): Active; Activity (Elatine triandra [32]): Active; Activity (Rotala indica [33]): Active; Activity [34]: Active; Activity (Lindernia procumbens [35]): Active; Activity (Pontederia vaginalis [36]): Active; Activity (Cyperus difformis [37]): Active; Activity (Echinochloa oryzicola [38]): Active
Cn1cc(C(=O)NOc2ccc(Cl)cc2)c(OCc2cccc(C(F)(F)F)c2)n1 | Active | Non-toxic | Active | Active | Active | Active | Active | Active | Active | inactive | Non-toxic | Active | Active | Active | Active | Active | Active | Active | Active | Active | Activity (Eleocharis acicularis [21]): Active; Activity (Eleocharis acicularis [22]): Active; Activity (Ammannia multiflora [23]): Active; Activity (Rotala indica [24]): Active; Activity (Elatine triandra [25]): Active; Activity (Lindernia procumbens [26]): Active; Activity [27]: Active; Activity (Pontederia vaginalis [28]): Active; Activity (Cyperus difformis [29]): Active; Activity (Echinochloa oryzicola [30]): Active; Activity (Ammannia multiflora [31]): Active; Activity (Elatine triandra [32]): Active; Activity (Rotala indica [33]): Active; Activity [34]: Active; Activity (Lindernia procumbens [35]): Active; Activity (Pontederia vaginalis [36]): Active; Activity (Cyperus difformis [37]): Active; Activity (Echinochloa oryzicola [38]): Active
CCONC(=O)c1cn(C)nc1OCc1cccc(C(F)(F)F)c1 | Active | Non-toxic | Active | Active | Active | Active | Active | Active | Active | Active | Non-toxic | Active | Active | Active | Active | Active | Active | Active | Active | Active | Activity (Eleocharis acicularis [21]): Active; Activity (Eleocharis acicularis [22]): Active; Activity (Ammannia multiflora [23]): Active; Activity (Rotala indica [24]): Active; Activity (Elatine triandra [25]): Active; Activity (Lindernia procumbens [26]): Active; Activity [27]: Active; Activity (Pontederia vaginalis [28]): Active; Activity (Cyperus difformis [29]): Active; Activity (Echinochloa oryzicola [30]): Active; Activity (Ammannia multiflora [31]): Active; Activity (Elatine triandra [32]): Active; Activity (Rotala indica [33]): Active; Activity [34]: Active; Activity (Lindernia procumbens [35]): Active; Activity (Pontederia vaginalis [36]): Active; Activity (Cyperus difformis [37]): Active; Activity (Echinochloa oryzicola [38]): Active
CCCN(OCC)C(=O)c1cn(C)nc1OCc1cccc(C(F)(F)F)c1 | inactive | Non-toxic | inactive | inactive | Active | Active | Active | Active | Active | Active | Non-toxic | Active | Active | inactive | Active | Active | Active | Active | Active | Active | Activity (Eleocharis acicularis [21]): Active; Activity (Eleocharis acicularis [22]): Active; Activity (Ammannia multiflora [23]): Active; Activity (Rotala indica [24]): Active; Activity (Elatine triandra [25]): Active; Activity (Lindernia procumbens [26]): Active; Activity [27]: Active; Activity (Pontederia vaginalis [28]): Active; Activity (Cyperus difformis [29]): Active; Activity (Echinochloa oryzicola [30]): Active; Activity (Ammannia multiflora [31]): Active; Activity (Elatine triandra [32]): Active; Activity (Rotala indica [33]): Active; Activity [34]: Active; Activity (Lindernia procumbens [35]): Active; Activity (Pontederia vaginalis [36]): Active; Activity (Cyperus difformis [37]): Active; Activity (Echinochloa oryzicola [38]): Active
Cn1cc(C(=O)Nc2ccc(F)cc2F)c(OCc2cccc(C(F)(F)F)c2)n1 | Active | Non-toxic | inactive | Active | Active | Active | Active | Active | Active | inactive | Toxic | Active | Active | Active | Active | Active | Active | Active | inactive | Active | Activity (Eleocharis acicularis [21]): Active; Activity (Eleocharis acicularis [22]): Active; Activity (Ammannia multiflora [23]): Active; Activity (Rotala indica [24]): Active; Activity (Elatine triandra [25]): Active; Activity (Lindernia procumbens [26]): Active; Activity [27]: Active; Activity (Pontederia vaginalis [28]): Active; Activity (Cyperus difformis [29]): Active; Activity (Echinochloa oryzicola [30]): Active; Activity (Ammannia multiflora [31]): Active; Activity (Elatine triandra [32]): Active; Activity (Rotala indica [33]): Active; Activity [34]: Active; Activity (Lindernia procumbens [35]): Active; Activity (Pontederia vaginalis [36]): Active; Activity (Cyperus difformis [37]): Active; Activity (Echinochloa oryzicola [38]): Active
